In the Bradley open melting point set (2014):
“And” between values parts separate entries of the source, which are not always exact repeats. Equal values may be shown once.

Structure (SMILES) | melting point
C/C=C/C1Nn2c(nnc2-c2ccc(OC)cc2)S1 (configuration not stated) | 81 °C
C/C=C/C1Nn2c(nnc2-c2ccccc2OC)S1 (configuration not stated) | 125 °C
CC(C)CCOC(=O)/C=C/c1ccc(/C=C/C(=O)OCCC(C)C)c([N+](=O)[O-])c1 | 94 °C
CC12CCC(C1(C)C)C(C/C=C\c1ccccc1)(C1(C/C=C/c3ccccc3)C(=O)C3(C)CCC1C3(C)C)C2=O (configuration not stated) | 152 °C
CCCCOc1ccc(-c2nnc3sc(/C=C/c4ccccc4)nn23)cc1 | 80 °C
COc1cc2nnc(/C=C/C(C)=O)c(-c3ccc(C)o3)c2cc1OC | 170 °C
N#C/C(=C\c1ccc(Cl)cc1Cl)c1nc(-c2cccc3ccccc23)cs1 | 133 °C
O=C(/C=C/c1ccc(-c2ccc(Br)cc2)o1)c1ccco1 | 165 °C
CCOC(=O)C(C=Cc1cccc(C=CC(C(=O)OCC)C(=O)OCC)c1)C(=O)OCC | 101 °C
O=C1/C(=C\c2ccco2)SC(=S)N1CN1CCCCC1 | 121 °C
O=C1/C(=N/Nc2cccc([N+](=O)[O-])c2)C(C(F)(F)F)=NN1c1ccccc1 | 151 °C
O=C(O)C1=NN(c2ccccc2)C(=O)C1=CC1C(=O)N(c2ccccc2)N=C1C(=O)O (configuration not stated) | 259 °C
CC(CCc1oc2ccccc2c1-c1ccc(C)o1)=NO | 105 °C
O=C(O)CC(O)C(=O)O (racemic) [dl-malic acid] | 132 °C
C[C@@H]1CCCC[C@@H]1O (relative stereo) [cis-2-methylcyclohexanol] | 8 °C
O=C(O)C(O)[C@H](O)C(=O)O (stereo in doubt) [D-tartaric acid] | 169 °C
Clc1ccc(C(c2ccc(Cl)cc2)C(Cl)(Cl)Cl)cc1 [1,1'-(2,2,2-Trichloroethane-1,1-diyl)bis(4-chlorobenzene)] | 108 °C
Cc1cc(C)c(CSCc2c(C)cc(C)cc2C)c(C)c1 [1,1'-(sulfanediyldimethanediyl)bis(2,4,6-trimethylbenzene)] | 146 °C
C1CCC(C2CCCCC2)CC1 [1,1'-Bi(cyclohexyl)] | 4 °C
O=[N+]([O-])c1cccc(C=Cc2cccc([N+](=O)[O-])c2)c1 [1,1'-[1,2-Ethenediyl]bis[3-nitrobenzene]] | 88 °C
CC(Cl)(Cl)Cl [1,1,1-trichloroethane] | -30 °C
ClCC(Cl)Cl [1,1,2-Trichloroethane] | -35 °C
BrCC(Br)Br [1,1,2-tribromoethane] | -29 °C
C[SiH](C)O[Si](C)(C)O[SiH](C)C [1,1,3,3,5,5-hexamethyltrisiloxane] | -67 °C

Structure (SMILES) | melting point
C[SiH](C)O[SiH](C)C [1,1,3,3-tetramethyldisiloxane] | -78 °C
CC(Br)Br [1,1-dibromoethane] | -63 °C
CCCC(c1ccccc1)c1ccccc1 [1,1-diphenylbutane] | -25 °C
BrCC(Br)(Br)CBr [1,2,2,3-tetrabromopropane] | 11 °C
OC1CC2=C(CCCC2)CC1O (configuration not stated) [1,2,3,4,5,6,7,8-octahydronaphthalene-2,3-diol] | 121 °C
ClC1C(Cl)C(Cl)C(Cl)C(Cl)C1Cl (configuration not stated) [1,2,3,4,5,6-Hexachlorocyclohexane] | 113 °C
C1=CC2=NC3=C(CCCC3)C2=CC1 [1,2,3,4-TETRAHYDROCARBAZOLE] | 118 °C
c1ccc2c3c([nH]c2c1)CCCC3 [1,2,3,4-tetrahydrocarbazole] | 119 °C
Cc1cccc(C)c1C [1,2,3-Trimethylbenzene] | -25 °C
O=Cc1csnn1 [1,2,3-thiadiazole-4-carboxaldehyde] | 85 °C
O=C(O)c1csnn1 [1,2,3-thiadiazole-4-carboxylic acid] | 228 °C
Clc1cccc(Cl)c1Cl [1,2,3-trichlorobenzene] | 55 °C and 53 °C (2×)
Oc1cccc(O)c1O [1,2,3-trihydroxybenzene] | 134 °C
Cc1cccc(C)c1C [1,2,3-trimethylbenzene] | -25 °C
Brc1cc(Br)c(Br)cc1Br [1,2,4,5-Tetrabromobenzene] | 182 °C
Clc1cc(Cl)c(Cl)cc1Cl [1,2,4,5-Tetrachlorobenzene] | 139 °C
Clc1cc(Cl)c(Cl)cc1Cl [1,2,4,5-tetrachlorobenzene] | 140 °C
Cc1cc(C)c(C)cc1C [1,2,4,5-tetramethylbenzene] | 80 °C
Cc1ccc(C)c(C)c1 [1,2,4-Trimethylbenzene] | -43.8 °C
O=C(O)c1ccc2c(c1)C(=O)OC2=O [1,2,4-benzenetricarboxylic anhydride] | 167 °C
c1ccc2c(c1)ccc1cc3c(ccc4ccccc43)cc12 [1,2,5,6-Dibenzanthracene dibenz[a,h]anthracene] | 266 °C
CCCCCCCCCCc1ccc(N(NC(=O)OC(C)(C)C)C(=O)OC(C)(C)C)cc1CCCCCCCCCC [1,2-Bis(tert-butoxycarbonyl)-1-(3,4-didecylphenyl)hydrazine] | 37.5 °C
Oc1ccccc1O [1,2-Dihydroxybenzene] | 105 °C
COCCOC [1,2-Dimethoxyethane] | -58 °C

Structure (SMILES) | melting point
Cc1ccc([N+](=O)[O-])cc1C [1,2-Dimethyl-4-nitrobenzene] | 30.5 °C
O=S1(=O)CCCO1 [1,2-Oxathiolane 2,2-dioxide] | 32 °C
OCc1ccccc1CO [1,2-benzenedimethanol] | 64 °C
CCC1CO1 (configuration not stated) [1,2-butene oxide] | -130 °C and -129 °C
CC(Br)CBr (configuration not stated) [1,2-dibromopropane] [listing 1 of 2 here] | -55 °C
CC(Br)CBr (configuration not stated) [1,2-dibromopropane] [listing 2 of 2 here] | -55 °C
O=[N+]([O-])c1cccc(Cl)c1Cl [1,2-dichloro-3-nitrobenzene] | 62 °C
Fc1ccccc1F [1,2-difluorobenzene] | -34 °C
COCCOC [1,2-dimethoxyethane] | -69 °C
COCCOC [1,2-dimethyloxyethane] | -58 °C
c1ccc(OCCOc2ccccc2)cc1 [1,2-diphenoxyethane] | 95 °C
SCCS [1,2-ethanedithiol] | -41 °C
CCCCCCC(O)CO (configuration not stated) [1,2-octanediol] | 31 °C
N#CCc1ccccc1CC#N [1,2-phenylenediacetonitrile] | 59 °C
Brc1cc(Br)cc(Br)c1 [1,3,5-Tribromobenzene] | 122 °C
CC(C)(C)c1cc(C(C)(C)C)cc(C(C)(C)C)c1 [1,3,5-tri-tert-butylbenzene] | 71 °C
Cc1cc(C)n(C)n1 [1,3,5-trimethyl-1h-pyrazole] | 36 °C
C1OCOCO1 [1,3,5-trioxane] | 61 °C
Cn1c(=O)c2c(ncn2C)n(C)c1=O [1,3,7-Trimethyl-3,7-dihydro-1H-purine-2,6-dione] | 237 °C
c1ccc2scnc2c1 [1,3-Benzothiazole] | 2 °C
Clc1cccc(Cl)c1 [1,3-Dichlorobenzene] | -24.8 °C
O=C(CO)CO [1,3-Dihydroxyacetone] | 75 °C
O=C=N/c1cccc(N=C=O)c1C [1,3-Diisocyanato-2-methylbenzene] | 20 °C
O=C(CC(=O)c1ccccc1)c1ccccc1 [1,3-Diphenylpropane-1,3-dione] | 77 °C
